These results are taken from PMC4826283 (Journal of nuclear medicine : official publication, Society …, 2014).

The test system of the assay is kappa opioid receptor (KOR). The assay is described as follows: in vivo PET receptor occupancy. The format is cell-based, Macaca mulatta. The note with it: rhesus monkey, brain.

Regarding `Cc1cc(C)cc([C@@H]2CCCN2Cc2ccc(Oc3ccc(C(N)=O)cc3F)cc2)c1` [LY2456302], the “% occupancy at 0.3 mg/kg” value worked out at 93 % occupancy at 0.3 mg/kg.
